According to patent US6534659B2, “Sufidomaidocarboxylic acids, method for production thereof, and use therefor” (Nippon Shokubai Co., Ltd., priority 2000, dated 2003):

Legend:
[1] = Ability to inhibit corrosion by polarization resistance (Rp), iron electrodes; set-up: ability to inhibit corrosion: concentration or dose not given beside the values; settings: for Ability to inhibit corrosion After 20 min. / Ability to inhibit corrosion After 15 hrs / Ability to inhibit corrosion Peak: Electrode Fe; for ability to inhibit corrosion / Rp: iron electrode, sodium salt
[2] = Ability to inhibit corrosion by polarization resistance (Rp), low-carbon steel electrodes (X65); settings: Electrode X65

SMILES	Ability to inhibit corrosion After 20 min. [1]	Ability to inhibit corrosion After 15 hrs [1]	Ability to inhibit corrosion Peak [1]	ability to inhibit corrosion ([1]; after the elapse of 25 minutes)	ability to inhibit corrosion ([1]; after the elapse of 15 hours)	ability to inhibit corrosion ([1]; peak)	Ability to inhibit corrosion After 20 min. [2]	Ability to inhibit corrosion After 15 hrs [2]	Ability to inhibit corrosion Peak [2]	ability to inhibit corrosion ([1]; after the elapse of 20 minutes)	Rp ([1]; after the elapse of 20 minutes)	Rp ([1]; after the elapse of 15 hours)	Rp ([1]; peak)
CC1(C)SCCN1C(=O)CCC(=O)O [Example 3, N-(2-carboxylethylcarbonyl)-2,2-dimethylthiazolidine]	71.4%	97.8%	98.1%	71.4%	97.8%	98.1%							
CC1(C)SCCN1C(=O)c1ccccc1C(=O)O [Example 1, N-(2-carboxybenzoyl)-2,2-dimethylthiazolidine]	48%	96.3%	98.5%		96.3%	98.5%	71.0%	94.7%	97.2%	47.6%			
CC1(C)SCCN1C(=O)C=CC(=O)O [Example 2, N-(2-carboxylvinylcarbonyl)-2,2-dimethylthiazolidine]					95.5%	98.1%				55.0%	200 Ω	2000 Ω	about 4800 Ω
CC1(C)SCCN1C(=O)C1CCCCC1C(=O)O (stereo not drawn) [Example 4, N-(2-carboxylcyclohexylcarbonyl)-2,2-dimethylthiazolidine]					98.3%	98.8%				95.9%	640 Ω	5300 Ω	about 7450 Ω
